# Measurements reported in PMC6131501, “Urate transporter inhibitor lesinurad is a selective peroxisome proliferator-activated receptor gamma modulator (sPPARγM) in vitro” (Scientific Reports, 2018).
# Entries after “also recorded” stand apart in the source; their conditions may differ.
# Legend:
# [1] = system: 3T3-L1 adipocytes; experiment: Differentiation of 3T3-L1 adipocytes, Oil Red O staining; type: cell-based, murine; conditions: rosiglitazone 2 μM; lesinurad up to 50 μM
# Method: For this, 3T3-L1 cells were treated with insulin, dexamethasone and isobutylmethylxanthine (IBMX) to induce their differentiation into mature adipocytes. […] 3T3-L1 cells were subcultured in DMEM containing 10% newborn calf serum in a humidified atmosphere at 37 °C, 5% CO2. Cells were differentiated into adipocytes within 14 days according to the method[54] reported by Zebisch and colleagues. In brief, cells were seeded in 6-well plates ([…]). […] At day 5, medium was changed to contain only insulin for another two days. Cells were then kept for lipid droplet accumulation in basal medium without additions until day 15. […] Differentiation of 3T3-L1 cells to adipocytes was confirmed by Oil Red O staining. For this, cells were washed with PBS and then fixed for 60 min with a formaldehyde solution (4% in PBS). Subsequently, cells were rinsed with 60% isopropanol and incubated with Oil Red O solution (0.3%) for 120 min.
# [2] = set-up: method as in PMID 27716403, PMID 26951201; conditions: cited from earlier work
# [3] = molecular target: T1, PPARα (Homo sapiens, UniProt Q07869); experiment: Gal4 hybrid reporter gene assay PPARα; type: cell-based
# T1 construct: expressed in transfected cells; host or cells: HEK293T
# T1 sequence (Q07869 239-466 limits assumed): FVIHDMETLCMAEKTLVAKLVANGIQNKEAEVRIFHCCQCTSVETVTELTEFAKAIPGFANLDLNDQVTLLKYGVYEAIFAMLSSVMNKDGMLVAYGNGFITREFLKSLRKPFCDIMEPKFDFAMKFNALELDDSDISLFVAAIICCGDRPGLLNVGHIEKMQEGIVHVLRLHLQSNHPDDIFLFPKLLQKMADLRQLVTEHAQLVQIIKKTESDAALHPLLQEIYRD
# Text: These in vitro test systems are based on a constitutively expressed hybrid receptor composed of the ligand binding domain of the respective human nuclear receptor and the DNA binding domain of the yeast receptor Gal4. A Gal4-inducible firefly luciferase serves as reporter gene and a constitutively expressed renilla luciferase is used for normalization of transfection efficacy and internal toxicity control[18],[19]. […] The Gal4-fusion receptor plasmids pFA-CMV-hPPARα-LBD[50], pFA-CMV-hPPARγ-LBD[50], pFA-CMV-hPPARδ-LBD[50], pFA-CMV-hLXRα-LBD[51], pFA-CMV-hLXRβ-LBD[51], pFA-CMV-hRXRα-LBD[52], pFA-CMV-hRXRβ-LBD[52], pFA-CMV-hRXRγ-LBD[52], pFA-CMV-hRARα-LBD[52], pFA-CMV-hRARβ-LBD[52], pFA-CMV-hRARγ-LBD[52], pFA-CMV-hFXR-LBD[53], pFA-CMV-hVDR-LBD[52], pFA-CMV-hCAR-LBD[52] and pFA-CMV-hPXR-LBD[52] coding for the hinge region and ligand binding domain (LBD) of the canonical isoform of the respective nuclear receptor have been reported previously. pFR-Luc (Stratagene) was used as reporter plasmid and pRL-SV40 (Promega) for normalization of transfection efficiency and cell growth.
# HEK293T cells were grown in DMEM high glucose, supplemented with 10% FCS, sodium pyruvate (1 mM), penicillin (100 U/mL) and streptomycin (100 μg/mL) at 37 °C and 5% CO2. The day before transfection, HEK293T cells were seeded in 96-well plates (3·10^4 cells/well). Before transfection, medium was changed to Opti-MEM without supplements. Transient transfection was carried out using Lipofectamine LTX reagent (Invitrogen) according to the manufacturer’s protocol with pFR-Luc (Stratagene), pRL-SV40 (Promega) and the corresponding Gal4-fusion nuclear receptor plasmid. 5 h after transfection, medium was changed to Opti-MEM supplemented with penicillin (100 U/mL), streptomycin (100 μg/mL), now additionally containing 0.1% DMSO and the respective test compound or 0.1% DMSO alone as untreated control. Each concentration was tested in duplicates and each experiment was repeated independently at least three times. Following overnight (12-14 h) incubation with the test compounds, cells were assayed for luciferase activity using Dual-Glo™ Luciferase Assay System (Promega) according to the manufacturer’s protocol. Luminescence was measured with an Infinite M200 luminometer (Tecan Deutschland GmbH). […] Fold activation was obtained by dividing the mean RLU of a test compound at a respective concentration by the mean RLU of untreated control.
# [4] = system: PPARγ-regulated genes in HepG2 cells; experiment: PPARγ target gene quantification in HepG2 cells (qPCR); type: cell-based, human; conditions: HepG2, 30 μM, 8 h; mean ± SEM, n = 4
# Method: HepG2 cells were incubated with 1 (30 μM) or 0.1% DMSO as untreated control for 8 h, harvested, washed with cold phosphate-buffered saline (PBS) and then directly used for RNA extraction. 2 μg total RNA were extracted from HepG2 cells by the Total RNA Mini Kit (R6834-02, Omega Bio-Tek, Inc., Norcross, GA, USA). RNA was reverse-transcribed into cDNA using the High-Capacity cDNA Reverse Transcription Kit (4368814, Thermo Fischer Scientific, Inc.) according to the manufacturer’s protocol. PPARγ target gene expression was evaluated by quantitative real time PCR analysis with a StepOnePlus™ System (Life Technologies, Carlsbad, CA, USA) using Power SYBR Green (Life Technologies; 12.5 μL per well). Each sample was set up in duplicates and repeated in four independent experiments. The expression was quantified by the comparative ∆∆Ct method and glycerinaldehyde 3-phosphate dehydrogenase (GAPDH) served as reference gene. The following PCR primers were used: Adiponectin: 5′-TGGCTATGCTCACAGTCTCACATC-3′ (fwd) and 5′-CTCTGTGCCTCTGGTTCCACAA-3′ (rev); ANGPTL4: 5′-ATTCTTTCCAGCGGCTTCTG-3′ (fwd) and 5′-GAG GAC TGG AGA CGC GGA G-3′ (rev); CD36: 5′-GGC TGT GAC CGG AAC TGT G-3′ (fwd) and 5′-AGGTCTCCAACTGGCATTAGAA-3′ (rev); GAPDH: 5′-ATATGATTCCACCCATGGCA-3′ (fwd) and 5′-GATGATGACCCTTTTGGCTC-3′ (rev).
# Results (expressed as mean ± SEM % relative mRNA expression to vehicle (0.1% DMSO); n = 4): Adiponectin: 1 (30 μM): 163 ± 41%; ANGPTL4: 1 (30 μM): 298 ± 49%; CD36: 1 (30 μM): 105 ± 16%.
# [5] = system: urate transporter 1 (URAT1); set-up: method as in PMID 27716403; conditions: cited from earlier work
compound,measurement,setting,value
O=C(O)CSc1nnc(Br)n1-c1ccc(C2CC2)c2ccccc12 [lesinurad],lipid accumulation during differentiation (Oil Red O staining),[1],lacked this adipogenic effect; also recorded: does not induce fat accumulation
same,plasma protein binding,[2],98%
same,Gal4-PPARα transactivation,"[3]; 30 μM, compared with PPARγ",lower efficacy
same,EC50,"[3]; Gal4 hybrid reporter, HEK293T, 12-14 h, mean ± SEM, at least three experiments",20.8 ± 0.7 µM
same,PPARα activation efficacy,[3]; vs. 1 µM of PPARα agonist GW7647,13.5 ± 0.5%
same,ANGPTL4 relative mRNA expression to vehicle,[4],298 ± 49%
same,Adiponectin relative mRNA expression to vehicle,[4],163 ± 41%
same,CD36 relative mRNA expression to vehicle,[4],105 ± 16%
same,IC50,[5],3.5 µM
